Test results from patent US20080269343A1, “GALENIC FORMULATIONS OF ORGANIC COMPOUNDS” (priority 2004, published 2008).
Read-outs that look alike come from different tables or passages of the source.

Assays:
[1] = Steady-state pharmacokinetics of aliskiren 300 mg alone, digoxin interaction study, Day 7 (Example 8); assay type: in vivo, human; details: 300 mg daily, Day 7, healthy volunteers N 21; for AUC / Cmax / Tmax: human, in vivo, oral, 300 mg
Protocol: The study employed was an open-label, two-period, multiple-dose design to evaluate the pharmacokinetic drug-drug interaction between digoxin and aliskiren when given alone or in combination to healthy volunteers. A total of 22 healthy volunteers were enrolled into the study. The subjects were admitted to the study center at least 24 hours prior to the initial dosing of aliskiren for baseline evaluation. If subjects met all eligibility criteria at baseline, they were randomized into the study and confined to the clinic on days 1-7 and days 17-33. All study medications were taken under fasted condition. The study was completed with the end of study evaluations on Day 34, after the last blood sample was collected.
In period 1 (Days 1-7), subjects received a single 300 mg daily dose of aliskiren for 7 days. Period 1 was followed by a ten (10) day washout period. In period 2, subjects received a single 0.25 mg daily dose of digoxin for 9 days (Days 18-26) and aliskiren 300 mg once a day with a single 0.25 mg daily dose of digoxin co-administered for 7 days (Days 27-33).
Pharmacokinetic blood sampling for aliskiren alone occurred on Day 7 up to 24 hours post dose (5-mL blood samples were collected into lithium heparin tubes on Day 7 of the study at pre-dose, 0.5, 1, 2, 3, 4, 6, 8, 12, 16 and 24 hours after dosing).

[2] = Single-dose four-period crossover pharmacokinetic study of 75, 150, 300 and 600 mg aliskiren (dosage form 3) in healthy volunteers (Example 3); assay type: in vivo; details: human, plasma; for Cmax / AUC(0-t) / AUC(0-inf): arithmetic mean (SD); for AUC(0-t): read-out: AUC0-96; for Tmax: median, dosage form 3, healthy subjects n = 30, fasted
Protocol: An open-label, single-dose, four-period, four-treatment, randomized crossover study with a 7-day washout between each period to compare the plasma concentrations of 75, 150, 300 and 600 mg of aliskiren (dosage form 3) in healthy volunteers was carried out. A total of 32 healthy subjects enrolled and 30 completed all study procedures and treatments. Subjects were screened during a 21-Day period and, if eligible, proceeded to a baseline visit prior to each treatment (four baseline evaluations in total). There was an end of study evaluation prior to discharge from the study site. Subjects were randomized into 4 dosing sequence groups with 8 subjects per sequence. The subjects were admitted to the study center at least 12 hours prior to the initial dosing in each period for baseline evaluations, and were confined to the clinic for at least 48 h post-dose in each period. Following an inter-dose interval of at least 7 days, each subject returned to the study site to receive the alternate treatment as per their randomization schedule. All subjects received each of the 75, 150, 300 and 600 mg treatments once during the study according to a randomization schedule. Plasma samples for determination of aliskiren were obtained over 96 hour period after the dose in each treatment segment. For all treatment periods, subjects fasted for a minimum of 10 hours pre-dose to 4 hours post-dose. Subjects were considered to have completed the study when all safety and pharmacokinetic evaluations had been completed.
Blood samples were collected to determine the pharmacokinetics following a single oral dose of 75, 150, 300 or 600 mg of aliskiren. Plasma concentrations of aliskiren were used to determine the pharmacokinetic parameters using non-compartmental methods, and the data are summarized in FIGS. 1, 2, and 3, and Table 1.

[3] = single oral dose 75 mg, healthy subjects n = 30
[4] = single oral dose 150 mg, healthy subjects n = 30
[5] = single oral dose 300 mg, healthy subjects n = 30
[6] = single oral dose 600 mg, healthy subjects n = 30

- Cmin^SS ([1]; Geometric Mean): 25.4 ng/mL
- AUCτ ([1]; Max): 2710 ng·h/mL
- Cmax^SS ([1]; Max): 478 ng/mL
- Cmin^SS ([1]; Max): 41.5 ng/mL
- tmax^SS ([1]; Max): 6.00 h
- Cmin^SS ([1]; Median): 24.1 ng/mL
- AUCτ ([1]; Min): 943 ng·h/mL
- Cmax^SS ([1]; Min): 131 ng/mL
- Cmin^SS ([1]; Min): 13.1 ng/mL
- tmax^SS ([1]; Min): 0.50 h
- Cmin^SS ([1]; arithmetic mean): 26.5 ng/mL
- AUC ([1]; Geometric Mean): 1600 ng·h/mL
- Cmax ([1]; Geometric Mean): 246 ng/mL
- Tmax ([1]; Geometric Mean): 1.39 h
- AUC ([1]; Median): 1560 ng·h/mL
- Cmax ([1]; Median): 234 ng/mL
- Tmax ([1]; Median): 1 h
- AUC ([1]; arithmetic mean): 1670 ng·h/mL
- Cmax ([1]; arithmetic mean): 261 ng/mL
- Tmax ([1]; arithmetic mean): 1.93 h
- Cmax [2, 3]: 26 ng/mL
- AUC(0-t) [2, 3]: 266 ng·h/mL
- AUC(0-inf) ([2]; single oral dose 75 mg, healthy subjects, n = 23): 356 ng·h/mL
- Cmax [2, 4]: 72 ng/mL
- AUC(0-t) [2, 4]: 530 ng·h/mL
- AUC(0-inf) ([2]; single oral dose 150 mg, healthy subjects, n = 29): 627 ng·h/mL
- AUC(0-inf) [2, 5]: 1620 ng·h/mL
- Cmax [2, 5]: 202 ng/mL
- AUC(0-t) [2, 5]: 1480 ng·h/mL
- AUC(0-inf) [2, 6]: 3520 ng·h/mL
- Cmax [2, 6]: 420 ng/mL
- AUC(0-t) [2, 6]: 3240 ng·h/mL
- Tmax ([2]; single oral dose 75 mg): 1 h
- Tmax ([2]; single oral dose 150 mg): 2.5 h
- Tmax ([2]; single oral dose 300 mg): 3 h
- Tmax ([2]; single oral dose 600 mg): 2 h
SMILES: COCCCOc1cc(C[C@@H](C[C@H](N)[C@@H](O)C[C@H](C(=O)NCC(C)(C)C(N)=O)C(C)C)C(C)C)ccc1OC [aliskiren, 2(S),4(S),5(S),7(S)—N-(3-amino-2,2-dimethyl-3-oxopropyl)-2,7-di(1-methylethyl)-4-hydroxy-5-amino-8-[4-methoxy-3-(3-methoxy-propoxy)phenyl]-octanamide]
